Legend:
Type in all cases: cell-based
TkLUP = molecular target: T1, TkLUP (Taraxacum kok-saghyz, UniProt A0A3B1EU92); assay: transient expression in N. benthamiana leaves, GC-MS; conditions: with Tkhmgrc1; endogenous 2,3-oxidosqualene; predominant product
T1 construct: gene Lup; full-length cDNA; transient expression in Nicotiana benthamiana leaves
T1 sequence (A0A3B1EU92 1-758): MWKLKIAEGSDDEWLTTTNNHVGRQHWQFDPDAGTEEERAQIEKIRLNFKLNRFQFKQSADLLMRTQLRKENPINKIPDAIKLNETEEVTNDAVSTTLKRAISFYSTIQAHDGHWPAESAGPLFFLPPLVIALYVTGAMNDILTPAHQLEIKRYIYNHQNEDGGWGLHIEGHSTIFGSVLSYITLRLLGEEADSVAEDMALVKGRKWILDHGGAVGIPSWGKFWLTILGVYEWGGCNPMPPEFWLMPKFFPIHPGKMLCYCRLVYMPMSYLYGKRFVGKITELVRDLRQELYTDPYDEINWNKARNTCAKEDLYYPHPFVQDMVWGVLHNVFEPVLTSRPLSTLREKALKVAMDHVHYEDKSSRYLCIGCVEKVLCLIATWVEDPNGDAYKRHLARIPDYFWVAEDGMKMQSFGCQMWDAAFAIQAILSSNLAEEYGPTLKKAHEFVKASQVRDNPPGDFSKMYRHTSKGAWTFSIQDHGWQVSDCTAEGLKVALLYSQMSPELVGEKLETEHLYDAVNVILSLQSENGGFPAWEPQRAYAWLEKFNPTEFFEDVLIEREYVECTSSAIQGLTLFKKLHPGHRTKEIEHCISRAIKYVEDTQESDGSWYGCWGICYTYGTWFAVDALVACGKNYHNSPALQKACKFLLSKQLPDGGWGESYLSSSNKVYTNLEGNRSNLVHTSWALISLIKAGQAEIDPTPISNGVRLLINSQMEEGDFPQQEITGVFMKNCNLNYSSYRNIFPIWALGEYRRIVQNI

CYP716A263 = molecular target: T2, CYP716A263 (Taraxacum kok-saghyz, UniProt A0A3S5GS06); assay: co-expression in N. benthamiana leaves, GC-MS; conditions: C-3 oxidation to lupenone; lupeol formed in situ by co-expressed TkLUP with Tkhmgrc1
T2 construct: full-length 473 residues (1,422 bp), from latex cDNA; transient expression in Nicotiana benthamiana leaves with host reductase
T2 sequence (A0A3S5GS06 1-473): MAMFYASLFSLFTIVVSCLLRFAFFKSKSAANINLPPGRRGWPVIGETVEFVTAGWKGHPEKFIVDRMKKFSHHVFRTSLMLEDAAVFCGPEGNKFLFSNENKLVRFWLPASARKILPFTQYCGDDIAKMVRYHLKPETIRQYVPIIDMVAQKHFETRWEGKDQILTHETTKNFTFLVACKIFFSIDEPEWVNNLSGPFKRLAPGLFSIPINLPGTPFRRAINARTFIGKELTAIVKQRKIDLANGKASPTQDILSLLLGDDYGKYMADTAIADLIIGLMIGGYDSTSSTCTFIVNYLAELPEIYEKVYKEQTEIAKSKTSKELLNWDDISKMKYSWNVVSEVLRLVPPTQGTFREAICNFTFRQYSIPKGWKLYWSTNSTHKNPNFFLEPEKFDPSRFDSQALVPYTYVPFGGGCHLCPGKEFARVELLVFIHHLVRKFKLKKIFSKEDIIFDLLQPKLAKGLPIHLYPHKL

CYP716A263/AtR2 = molecular target: T3, CYP716A263/AtR2 (Taraxacum kok-saghyz, UniProt A0A3S5GS06); assay: co-expression in S. cerevisiae, GC-MS; conditions: C-3 oxidation to taraxasterone; taraxasterol formed in situ by co-expressed TkLUPN-TkOSC1C; AtR2 reductase
T3 construct: full-length P450, 473 residues, co-expressed with Arabidopsis thaliana reductase AtR2 in S. cerevisiae CEN.PK2-1C; with NADPH--cytochrome P450 reductase 2 (Arabidopsis thaliana)
T3 sequence (A0A3S5GS06 1-473): as above
T3 sequence (Q9SUM3 whole entry partner): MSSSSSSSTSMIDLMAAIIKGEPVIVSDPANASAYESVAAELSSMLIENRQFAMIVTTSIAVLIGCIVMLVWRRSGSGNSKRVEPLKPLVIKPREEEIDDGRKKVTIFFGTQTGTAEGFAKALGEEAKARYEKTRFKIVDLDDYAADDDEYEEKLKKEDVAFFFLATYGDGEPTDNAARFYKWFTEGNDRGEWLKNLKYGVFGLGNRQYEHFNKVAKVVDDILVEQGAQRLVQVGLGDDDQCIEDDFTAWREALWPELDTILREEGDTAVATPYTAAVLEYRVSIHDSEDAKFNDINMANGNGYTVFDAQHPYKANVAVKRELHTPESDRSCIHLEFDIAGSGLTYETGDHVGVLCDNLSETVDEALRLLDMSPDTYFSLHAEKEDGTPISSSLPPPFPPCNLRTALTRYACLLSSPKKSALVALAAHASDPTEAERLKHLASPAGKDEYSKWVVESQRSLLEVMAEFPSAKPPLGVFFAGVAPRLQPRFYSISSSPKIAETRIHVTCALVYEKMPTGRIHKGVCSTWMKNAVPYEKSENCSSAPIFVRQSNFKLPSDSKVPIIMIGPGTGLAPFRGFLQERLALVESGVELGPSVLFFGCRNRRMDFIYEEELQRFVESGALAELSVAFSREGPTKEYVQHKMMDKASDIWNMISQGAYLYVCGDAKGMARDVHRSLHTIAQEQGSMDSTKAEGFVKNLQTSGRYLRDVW

TkOSC6 = molecular target: T4, TkOSC6 (Taraxacum kok-saghyz, UniProt A0A3S7RZ84); assay: expression in S. cerevisiae, GC-MS; conditions: endogenous 2,3-oxidosqualene as substrate; erg7 repressed by CuSO4; main product
T4 construct: gene OSC6; unmodified full-length protein; expressed in S. cerevisiae CEN.PK2-1C and N. benthamiana
T4 sequence (A0A3S7RZ84 1-758): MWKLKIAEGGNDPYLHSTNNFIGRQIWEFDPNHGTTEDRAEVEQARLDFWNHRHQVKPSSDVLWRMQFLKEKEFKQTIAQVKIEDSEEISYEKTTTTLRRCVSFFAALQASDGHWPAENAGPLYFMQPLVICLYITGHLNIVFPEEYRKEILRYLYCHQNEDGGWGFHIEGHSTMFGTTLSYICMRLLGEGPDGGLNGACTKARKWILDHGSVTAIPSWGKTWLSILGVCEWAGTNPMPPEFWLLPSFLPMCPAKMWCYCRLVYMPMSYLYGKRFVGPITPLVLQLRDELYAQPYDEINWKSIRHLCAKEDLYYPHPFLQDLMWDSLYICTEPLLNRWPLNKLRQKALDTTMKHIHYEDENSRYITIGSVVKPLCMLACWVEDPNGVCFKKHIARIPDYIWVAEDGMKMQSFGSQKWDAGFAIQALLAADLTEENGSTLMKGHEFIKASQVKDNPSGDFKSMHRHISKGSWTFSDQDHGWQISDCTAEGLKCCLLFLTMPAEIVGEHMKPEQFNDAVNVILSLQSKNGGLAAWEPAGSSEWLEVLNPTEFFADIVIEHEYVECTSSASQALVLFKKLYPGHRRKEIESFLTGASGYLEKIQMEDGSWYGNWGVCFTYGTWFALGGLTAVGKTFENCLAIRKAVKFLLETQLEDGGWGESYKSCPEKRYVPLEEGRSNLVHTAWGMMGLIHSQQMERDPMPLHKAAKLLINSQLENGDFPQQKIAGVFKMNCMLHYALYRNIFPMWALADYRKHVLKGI

C=C(C)[C@@H]1CC[C@]2(C)CC[C@]3(C)[C@H](CC[C@@H]4[C@@]5(C)CC[C@H](O)C(C)(C)[C@@H]5CC[C@]43C)[C@@H]12 [lupeol]
transient expression in N. benthamiana leaves, GC-MS (TkLUP): TkLUP in combination with Tkhmgrc1 led to the predominant production of lupeol | co-expression in N. benthamiana leaves, GC-MS (CYP716A263): CYP716A263 is capable of converting lupeol into lupenone and exhibits a C-3 oxidation activity

C=C1CC[C@]2(C)CC[C@]3(C)[C@H](CC[C@@H]4[C@@]5(C)CC[C@H](O)C(C)(C)[C@@H]5CC[C@]43C)[C@H]2[C@@H]1C [taraxasterol]
co-expression in S. cerevisiae, GC-MS (CYP716A263/AtR2): taraxasterol, as the most abundant product, was converted to taraxasterone

CC1(C)CC[C@]2(C)CC[C@]3(C)C(=CC[C@@H]4[C@@]5(C)CC[C@H](O)C(C)(C)[C@@H]5CC[C@]43C)[C@@H]2C1 [β-amyrin]
expression in S. cerevisiae, GC-MS (TkOSC6): TkOSC6 expression in yeast led to the identification of β-amyrin as main product

Source: publication PMC6459903, “The enzymes OSC1 and CYP716A263 produce a high variety of triterpenoids in the latex of Taraxacum koksaghyz” (Scientific Reports, 2019)
